Consider 29 molecules from ChEMBL document CHEMBL3046147, “Synthesis and Herbicidal Activity of 1-Arylalkyl-3-pyrrolin-2-one Derivatives” (J Pestic Sci, 2000).

SMILES strings stand for the structures.

In data set [1] the test system is Echinochloa oryzicola. Description: Pre-emergence herbicide activity against Echinochloa oryzicola under greenhouse condition measured after 14 to 20 days. In kind it is functional.
Data set [2] concerns Oryza sativa. Description: Phytotoxicity against two-leaf stage Oryza sativa cv. Nihonbare (rice) planted 1 cm depth measured after […]. In kind it is organism-based. The following applies: in vivo.
Data set [3] relates to Oryza sativa. Description: Phytotoxicity against two-leaf stage Oryza sativa cv. Nihonbare (rice) planted 3 cm depth measured after […]. In kind it is organism-based. The conditions noted are these: in vivo.
Another data set deals with Sagittaria pygmaea. Description: Herbicide activity against Sagittaria pygmaea under greenhouse condition compound treated at 0.5 leaf-stage measured after 14 to 20 days. In kind it is functional.
Data set [4] deals with Schoenoplectiella juncoides. Description: Herbicide activity against Schoenoplectiella juncoides under greenhouse condition compound treated at emergence-stage measured after 14 to 20 days. In kind it is functional.
In data set [5] the test system is Echinochloa oryzicola. Description: Herbicide activity against Echinochloa oryzicola under greenhouse condition compound treated at 2 leaf-stage measured after 14 to 20 days. In kind it is functional.

For the molecule `CC1=C(Oc2ccccc2)C(=O)N(C(C)(C)c2nc3ccccc3s2)C1`, the results for the MED (with Echinochloa oryzicola [1]; with Sagittaria pygmaea; in data set [4]) were 80 g/acre, 40 g/acre and 80 g/acre, respectively. Further, the MTD with Oryza sativa [2] and with Oryza sativa [3] was 40 g/acre throughout.
In the case of `CC1=C(c2ccccc2)C(=O)N(C(C)(C)c2nc3c(C)cccc3s2)C1`, the MED was 2.5 g/acre with Echinochloa oryzicola [1], 80 g/acre with Sagittaria pygmaea, 160 g/acre in data set [4] and <5 g/acre with Echinochloa oryzicola [5]. In addition, the MTD in the data set with Oryza sativa [2] amounted to 5 g/acre; in the data set with Oryza sativa [3], 20 g/acre.
For the molecule `CC1=C(c2ccccc2)C(=O)N(C(C)(C)c2nc3ccc(I)cc3s2)C1`, the MED in the data set on Echinochloa oryzicola [1] is given as 5 g/acre; in the data set with Sagittaria pygmaea, 20 g/acre; in data set [4], 20 g/acre; in the data set on Echinochloa oryzicola [5], <5 g/acre. Besides, the MTD was found to be 20 g/acre with Oryza sativa [2] and 10 g/acre in the data set with Oryza sativa [3].
In the case of `CC1=C(c2cccc(F)c2)C(=O)N(C(C)(C)c2nc3ccccc3s2)C1`, the MED in the data set on Echinochloa oryzicola [1] was determined as 5 g/acre; with Sagittaria pygmaea, 40 g/acre; in data set [4], 40 g/acre; in the data set on Echinochloa oryzicola [5], 5 g/acre. The MTD in the data set on Oryza sativa [2] worked out at 5 g/acre; in the data set on Oryza sativa [3], 20 g/acre.
Consider `CC1=C(c2ccccc2)C(=O)N(C(C)(C)c2nc3cc(C)ccc3s2)C1`, for which the MED is given as 10 g/acre in the data set with Echinochloa oryzicola [1], 10 g/acre with Sagittaria pygmaea, 20 g/acre in data set [4] and <5 g/acre with Echinochloa oryzicola [5]. For the same molecule, the MTD with Oryza sativa [2] was determined as 2.5 g/acre; with Oryza sativa [3] it was 40 g/acre.
As to `CC1=C(c2ccccc2)C(=O)N(C(C)(C)c2nc3cc(C(F)(F)F)ccc3s2)C1`, the MED in the data set with Echinochloa oryzicola [1] is 80 g/acre; with Sagittaria pygmaea it was 160 g/acre; in data set [4] it was 80 g/acre; in the data set on Echinochloa oryzicola [5] it was <5 g/acre. Further, the MTD with Oryza sativa [2] and in the data set on Oryza sativa [3] was 20 g/acre throughout.
With `CC1=C(c2ccccc2)C(=O)N(C(C)(C)c2csc3ccccc23)C1`, the MED is reported as 2.5 g/acre in the data set with Echinochloa oryzicola [1], 80 g/acre in the data set with Sagittaria pygmaea, 80 g/acre in data set [4] and <5 g/acre with Echinochloa oryzicola [5]. Further, the MTD came out at 2.5 g/acre with Oryza sativa [2] and 10 g/acre with Oryza sativa [3].
As to `CC1=C(/C=C/c2ccccc2)C(=O)N(C(C)(C)c2nc3ccccc3s2)C1`, the MED was 160 g/acre in the data set with Echinochloa oryzicola [1], 80 g/acre with Sagittaria pygmaea, 80 g/acre in data set [4] and <5 g/acre in the data set on Echinochloa oryzicola [5]. Besides, the MTD with Oryza sativa [2] and with Oryza sativa [3] was 80 g/acre in each case.
In the case of `CC1=C(c2ccccc2)C(=O)N(C(C)(C)c2nc3cc(C(=O)O)ccc3s2)C1`, the MED is 80 g/acre in the data set with Echinochloa oryzicola [1], 80 g/acre in the data set on Sagittaria pygmaea, 80 g/acre in data set [4] and <5 g/acre with Echinochloa oryzicola [5]. Further, the MTD with Oryza sativa [2] came to 10 g/acre; in the data set on Oryza sativa [3], 20 g/acre.
Regarding `CC1=C(c2ccccc2)C(=O)N(C(C)(C)c2csc(-c3ccccc3)n2)C1`, the MED is 40 g/acre in the data set with Echinochloa oryzicola [1], 40 g/acre in the data set on Sagittaria pygmaea, 40 g/acre in data set [4] and <5 g/acre in the data set on Echinochloa oryzicola [5]. Further, the MTD in the data set with Oryza sativa [2] and in the data set on Oryza sativa [3] was 40 g/acre throughout.
As to `CC1=C(c2ccccc2)C(=O)N(C(C)(C)c2ccsc2)C1`, the MED is 5 g/acre in the data set with Echinochloa oryzicola [1], 20 g/acre with Sagittaria pygmaea, 5 g/acre in data set [4] and <10 g/acre in the data set on Echinochloa oryzicola [5]. Also, the MTD with Oryza sativa [2] came to 20 g/acre; with Oryza sativa [3], 40 g/acre.
For `CC1=C(c2ccccc2O)C(=O)N(C(C)(C)c2nc3ccccc3s2)C1`, the MED is given as 10 g/acre with Echinochloa oryzicola [1], 80 g/acre with Sagittaria pygmaea, 2.5 g/acre in data set [4] and <5 g/acre in the data set on Echinochloa oryzicola [5]. The MTD with Oryza sativa [2] came out at 20 g/acre; with Oryza sativa [3] it was 5 g/acre.
With `CC1=C(c2cccc3ccccc23)C(=O)N(C(C)(C)c2nc3ccccc3s2)C1`, the MED (with Echinochloa oryzicola [1]; in the data set on Sagittaria pygmaea; in data set [4]) was 80 g/acre each time. For the same molecule, the MTD in the data set with Oryza sativa [2] and in the data set with Oryza sativa [3] was 80 g/acre throughout.
Consider `CC1=C(c2ccccc2)C(=O)N(C(C)(C)c2ccc(Cl)s2)C1`, for which the MED is given as 0.625 g/acre with Echinochloa oryzicola [1], 80 g/acre with Sagittaria pygmaea, 10 g/acre in data set [4] and 10 g/acre in the data set with Echinochloa oryzicola [5]. For the same molecule, the MTD was found to be 10 g/acre in the data set on Oryza sativa [2] and 20 g/acre in the data set on Oryza sativa [3].
Regarding `CCC1=C(c2ccccc2)C(=O)N(C(C)(C)c2nc3ccccc3s2)C1`, the MED turned out to be 0.313 g/acre in the data set on Echinochloa oryzicola [1], 80 g/acre in the data set with Sagittaria pygmaea, 10 g/acre in data set [4] and 5 g/acre with Echinochloa oryzicola [5]. The MTD is given as 20 g/acre in the data set on Oryza sativa [2] and 40 g/acre in the data set on Oryza sativa [3].
For `CC1=C(c2ccccc2)C(=O)N(C(C)(C)c2nc3cc(F)ccc3s2)C1`, the MED is listed as 1.25 g/acre in the data set on Echinochloa oryzicola [1], 20 g/acre with Sagittaria pygmaea, 40 g/acre in data set [4] and 5 g/acre in the data set with Echinochloa oryzicola [5]. Also, the MTD amounted to 1.25 g/acre in the data set on Oryza sativa [2] and 10 g/acre in the data set with Oryza sativa [3].
Turning to `CC1=C(c2ccccc2C(=O)O)C(=O)N(C(C)(C)c2nc3ccccc3s2)C1`, the MED in the data set with Echinochloa oryzicola [1] was 160 g/acre; in the data set with Sagittaria pygmaea, 160 g/acre; in data set [4], 160 g/acre; with Echinochloa oryzicola [5], <5 g/acre. The MTD with Oryza sativa [2] was 40 g/acre; in the data set on Oryza sativa [3], 20 g/acre.
As for `CC1=C(c2ccccc2)C(=O)N(C(C)(C)c2nc3ccc(F)cc3s2)C1`, the MED in the data set with Echinochloa oryzicola [1] is 5 g/acre; in the data set with Sagittaria pygmaea, 40 g/acre; in data set [4] it was 40 g/acre; in the data set on Echinochloa oryzicola [5] it was <5 g/acre. The values for the MTD in the data set with Oryza sativa [2] and in the data set on Oryza sativa [3] were 5 g/acre and 20 g/acre, respectively.
`COc1ccc2nc(C(C)(C)N3CC(C)=C(c4ccccc4)C3=O)sc2c1`: the MED came to 0.313 g/acre with Echinochloa oryzicola [1], 40 g/acre with Sagittaria pygmaea, 20 g/acre in data set [4] and 2.5 g/acre in the data set on Echinochloa oryzicola [5]. Besides, the figures for the MTD in the data set on Oryza sativa [2] and in the data set with Oryza sativa [3] were > 5 g/acre and 10 g/acre, respectively.
For the molecule `CC(C)(c1nc2ccccc2s1)N1CC(C(F)(F)F)=C(c2ccccc2)C1=O`, the MED in the data set with Echinochloa oryzicola [1] is reported as 1.25 g/acre; in the data set with Sagittaria pygmaea, 40 g/acre; in data set [4] it was 80 g/acre; in the data set on Echinochloa oryzicola [5], <5 g/acre. The results for the MTD with Oryza sativa [2] and in the data set with Oryza sativa [3] were 5 g/acre and 10 g/acre, respectively.
In the case of `CC1=C(c2ccccc2)C(=O)N(C(C)(C)c2nc3ccccc3o2)C1`, the MED was found to be 0.625 g/acre in the data set on Echinochloa oryzicola [1], 10 g/acre in the data set on Sagittaria pygmaea, 2.5 g/acre in data set [4] and 5 g/acre in the data set on Echinochloa oryzicola [5]. Besides, the MTD in the data set on Oryza sativa [2] was 5 g/acre; with Oryza sativa [3], 20 g/acre.
`CC1=C(c2ccccc2)C(=O)N(C(C)(C)c2ncc(-c3ccc(Cl)cc3)s2)C1`: the MED in the data set with Echinochloa oryzicola [1] is on record as 40 g/acre; with Sagittaria pygmaea, 160 g/acre; in data set [4], 160 g/acre; in the data set with Echinochloa oryzicola [5], <5 g/acre. Also, the MTD in the data set on Oryza sativa [2] and with Oryza sativa [3] was 80 g/acre each time.
With `CC(C)(c1nc2ccccc2s1)N1CC=C(c2ccccc2)C1=O`, the MED was 0.625 g/acre in the data set with Echinochloa oryzicola [1], 10 g/acre with Sagittaria pygmaea, 5 g/acre in data set [4] and 5 g/acre in the data set with Echinochloa oryzicola [5]. Moreover, the MTD with Oryza sativa [2] was 2.5 g/acre; in the data set with Oryza sativa [3], < 20 g/acre.
For the molecule `CC1=C(c2ccccc2)C(=O)N(C(C)(C)c2cc3ccccc3s2)C1`, the MED is recorded as 0.313 g/acre with Echinochloa oryzicola [1], 160 g/acre in the data set with Sagittaria pygmaea, 80 g/acre in data set [4] and 5 g/acre with Echinochloa oryzicola [5]. The MTD is on record as 10 g/acre in the data set with Oryza sativa [2] and 20 g/acre in the data set on Oryza sativa [3].
For the molecule `CCOc1ccc2nc(C(C)(C)N3CC(C)=C(c4ccccc4)C3=O)sc2c1`, the MED with Echinochloa oryzicola [1] was 1.25 g/acre; with Sagittaria pygmaea, 80 g/acre; in data set [4] it was 160 g/acre; in the data set on Echinochloa oryzicola [5] it was <5 g/acre. Further, the MTD worked out at 5 g/acre in the data set on Oryza sativa [2] and 10 g/acre in the data set on Oryza sativa [3].
Take `CC1=C(c2ccc(Cl)cc2)C(=O)N(C(C)(C)c2nc3ccccc3s2)C1`: the MED is on record as 80 g/acre in the data set with Echinochloa oryzicola [1], 160 g/acre in the data set with Sagittaria pygmaea, 160 g/acre in data set [4] and <5 g/acre in the data set with Echinochloa oryzicola [5]. Moreover, the MTD in the data set with Oryza sativa [2] is on record as 20 g/acre; in the data set with Oryza sativa [3] it was 40 g/acre.
`CC1=C(c2ccc(-c3ccccc3)cc2)C(=O)N(C(C)(C)c2nc3ccccc3s2)C1`: the MED in the data set on Echinochloa oryzicola [1] is <10 g/acre; in the data set on Sagittaria pygmaea, 160 g/acre; in data set [4], 160 g/acre; with Echinochloa oryzicola [5] it was <5 g/acre. In addition, the MTD in the data set with Oryza sativa [2] and in the data set with Oryza sativa [3] was 80 g/acre each time.
Turning to `CC1=C(c2ccccc2)C(=O)N(C(C)(C)c2ccccn2)C1`, the MED in the data set with Echinochloa oryzicola [1] came to 20 g/acre; with Sagittaria pygmaea, 80 g/acre; in data set [4], 40 g/acre.
Take `CC1=C(c2ccccc2)C(=O)N(C(C)(C)c2nc3cc(Br)ccc3s2)C1`: the MED is 20 g/acre in the data set on Echinochloa oryzicola [1], 160 g/acre in the data set with Sagittaria pygmaea and 160 g/acre in data set [4]. Also, the MTD in the data set with Oryza sativa [2] and in the data set on Oryza sativa [3] was 80 g/acre each time.
